Laboratory results taken from patent US7250157B2, “Dermatological compositions and methods” (Applied Genetics Incorporated Dermatics, priority 1996, dated 2007).

Assays:
[1] = test system: Cloudman S91 mouse melanoma cell line; assay: Trypsinization detachment time of S91 cells; type: cell-based
Method: Following this microscopic examination, cells were detached from dishes by trypsin. The time required for detachment by trypsin was recorded as an additional indicator of the phenotypic effects of test compounds. For each treatment, a subsample of cells was counted to determine the effects of treatment compounds on cellular proliferation. The remainder of cells were used for determination of melanin content. Melanin was extracted from cells by vortexing for 15 min in 1N NaOH. Standards were prepared by dissolving melanin (Sigma) in 1 N NaOH (Eller, et al., 1996). Absorbance of standards and samples was measured at 475 nm. Melanin was expressed as pg melanin/cell.

[2] = test system: Cloudman S91 mouse melanoma cell line; assay: Microscopic morphology (differentiation) of S91 cells; type: cell-based
Method: The Cloudman S91 mouse melanoma cell line was obtained from American Type Culture Collection (ATCC). Cells were cultured in Dulbecco's Modified Eagles Medium (DMEM) containing 10% calf serum, 2 mM L-glutamine, 10 U Penicillin/ml and 10 ug Streptomycin/ml according to a previously published protocol (Eller, et al., Proc. Natl. Acad. Sci. 93:1087-92. 1996). For testing propylene glycol and analogues for induction of melanogenesis, S91 cells were plated at 10^5 cells/35 mm dish in 10% calf serum. One day after plating, media was removed and replaced with media containing 2% calf serum and test compounds (Eller, et al., 1996). Cells were cultured for 6 days at 37° C. in 5% CO2 in a humidified incubator. Following this treatment period, cells were examined microscopically and the portion of dedifferentiated and differentiated cells was estimated. Previous studies have shown that dedifferentiated S91 cells have a rounded, spindly appearance while differentiated S91 cells have a flattened, cuboidal, multipolar and dendritic appearance (Orlow, et al., Exp. Cell Res. 191:209-218, 1990).

[3] = test system: Cloudman S91 mouse melanoma cell line; assay: Cell count (proliferation, toxicity) of treated S91 cells; type: cell-based
Method in brief: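 S91 cells in 2% calf serum exposed to test compounds for 6 days at 37° C; differentiated vs dedifferentiated morphology scored microscopically and trypsin detachment time recorded. Cells counted for proliferation; melanin extracted in 1N NaOH, A475 against melanin standards, expressed as pg melanin/cell.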

[4] = test system: nitric oxide in cell-free media from S91 cells; assay: Nitric oxide in cell-free media from S91 cells (Greiss reagent); type: cell-based, mouse; conditions: 4 days
Method: In a related experiment, nitric oxide was measured in cell-free media from S91 cells following treatment with a range of concentrations of 2,3-cis/exo-pinanediol or 5-norbornene-2,2-dimethanol for 4 days. In biological fluids, nitric oxide is converted into nitrite and nitrate with seconds of production. Therefore, nitric oxide is measured by first converting nitrate to nitrite using nitrate reductase, followed by addition of Greiss reagent to detect nitrite as optical density at 550 nm (Moshage, et al., 1995, Clin. Chem. 41:892-896; Schmidt, et al., 1995, Biochemica 2:22)). […] Moreover, the relative melanogenic potency of 2,3-cis/exo-pinanediol and 5-norbornene-2,2-dimethanol shown in FIG. 5 paralleled the relative potency of these compounds with regards to induction of nitric oxide (Table 17). […] It follows that measurement of induction of nitric oxide, cGMP or PKG may provide biochemically relevant screening assays for compounds that may be melanogenic. Thus, the utilization of these assays to screen compounds for melanogenic activity is claimed in the present invention.

[5] = test system: normal human epidermal melanocytes (NHEM); assay: Morphological differentiation of NHEM; type: cell-based; conditions: 5 mM
Method: Additionally, the length of dendrites was increased approximately 2-3-fold following treatment with 5 mM 5-NBene-2,2-DM, and there was an increase in the number of secretatory vesicles at the termini of dendrites (arrows in FIGS. 3A and 3B). […] Increased secretion of melanosomes resulting from treatment with 5 mM 5-NBene-2,2-DM was reflected in increased extracellular particulate tyrosinase activity (Example 7, Table 11).

SMILES: CC(O)CO (stereo not shown) [1,2-propanediol, 1,2-Propanediol (Propylene Glycol)]
- Trypsinization Detachment Time ([1]; 50 mM): 3 min
- Trypsinization Detachment Time ([1]; 150 mM): 6 min
- Trypsinization Detachment Time ([1]; 1% (136 mM)): ≦6 min
- Trypsinization Detachment Time ([1]; 2% (272 mM)): ≦9 min
- Trypsinization Detachment Time ([1]; 3% (408 mM)): ≦12 min
- Trypsinization Detachment Time ([1]; 4% (544 mM)): ≦15 min
- Trypsinization Detachment Time ([1]; 5% (680 mM)): ≦15 min
- Morphology Flattened Cuboidal ([2]; 50 mM): 25%
- Morphology Rounded Spindly ([2]; 50 mM): 75%
- Morphology Flattened Cuboidal ([2]; 150 mM): 50%
- Morphology Rounded Spindly ([2]; 150 mM): 50%
- Morphology Flattened Cuboidal ([2]; 1% (136 mM)): 10%
- Morphology Rounded Spindly ([2]; 1% (136 mM)): 90%
- Morphology Flattened Cuboidal ([2]; 2% (272 mM)): 30%
- Morphology Rounded Spindly ([2]; 2% (272 mM)): 70%
- Morphology Flattened Cuboidal ([2]; 3% (408 mM)): 60%
- Morphology Rounded Spindly ([2]; 3% (408 mM)): 40%
- Morphology Flattened Cuboidal ([2]; 4% (544 mM)): 85%
- Morphology Rounded Spindly ([2]; 4% (544 mM)): 15%
- Morphology Flattened Cuboidal ([2]; 5% (680 mM)): 100%
- Cells (×10^6) ([3]; 50 mM): 0.084 ×10^6
- Cells (×10^6) ([3]; 150 mM): 0.072 ×10^6
- Cells (×10^6) ([3]; 1% (136 mM), 6 days): 0.52 ×10^6
- Cells (×10^6) ([3]; 2% (272 mM), 6 days): 0.50 ×10^6
- Cells (×10^6) ([3]; 3% (408 mM), 6 days): 0.20 ×10^6
- Cells (×10^6) ([3]; 4% (544 mM), 6 days): 0.10 ×10^6
- Cells (×10^6) ([3]; 5% (680 mM), 6 days): 0.08 ×10^6
- effect on cell proliferation ([3]; levels used in this experiment (50 and 150 mM)): no reduction of cell proliferation

SMILES: OCC1(CO)CC2C=CC1C2 (stereo not shown) [5-NBene-2,2-DM, 5-norbornene-2,2-dimethanol]
- nmoles NO/10^6 Cells ([4]; 1 mM): 11.6 ± 1.1 nmoles NO/10^6 Cells
- uM NO ([4]; 1 mM): 4.80 ± 0.32 µM
- nmoles NO/10^6 Cells ([4]; 2.5 mM): 21.4 ± 3.7 nmoles NO/10^6 Cells
- uM NO ([4]; 2.5 mM): 5.46 ± 0.32 µM
- nmoles NO/10^6 Cells ([4]; 5 mM): 72.9 ± 10.5 nmoles NO/10^6 Cells
- uM NO ([4]; 5 mM): 6.36 ± 0.12 µM
- Cells (×10^6) ([3]; 1 mM, 4 days, X ± SE, n = 3): 0.423 ± 0.052 ×10^6
- Cells (×10^6) ([3]; 2.5 mM, 4 days, X ± SE, n = 3): 0.269 ± 0.040 ×10^6
- Cells (×10^6) ([3]; 5 mM, 4 days, X ± SE, n = 3): 0.090 ± 0.011 ×10^6
- toxicity to S91 cells ([3]; concentrations that induce much higher levels of tyrosinase): nontoxic
- increase of length of dendrites of NHEM [5]: 2-3 fold
- morphological changes of NHEM (in words) [5]: conversion of cells from a bipolar phenotype to a multidendritic phenotype
